In patent US20210386750A1, “METHODS AND MATERIALS FOR TREATING CANCER” (Mayo Foundation for Medical Education and Research, priority 2018, published 2021):
“Also recorded” adds a separate entry of the source.

Columns and labels:
PEA1 cells = test: Clonogenic (colony formation) assay in PEA1 cells; conditions: PEA1, BRCA1 siRNAs, colony formation 8-10 days (FIG. 4B, 14, 22B)
Experimental: OVCAR-8 (A) and PEA1 (B) cells were transfected with control luciferase (Luc) or BRCA1 siRNAs. 48 hours later, the cells were trypsinized, plated in 6-well plates, and subjected to colony formation assays. The indicated concentrations of ceritinib was added 12 hours after plating.

OVCAR-8 cells = test: Clonogenic (colony formation) assay in OVCAR-8 cells; conditions: for Sensitivity of BRCA1-depleted cells to the agent versus control luciferase siRNA cells: OVCAR-8, BRCA1 siRNAs, colony formation 8-10 days (FIG. 4A, 14, 22A); for Sensitization to the agent by NNMT overexpression: OVCAR-8 clones stably expressing Myc-DDK-NNMT versus empty vector, 8-10 days (FIG. 16, 24)
Experimental: A portion of the cells used in A and C were subjected to colony formation assays using olaparib, a PARP inhibitor (as a positive control for HR deficiency).
(A-C) OVCAR-8 and PEA1 cells were transfected with control luciferase (siLuc) or BRCA1 siRNAs. 48 hours later, the cells were trypsinized, immunoblotted for BRCA1 and HSP90 (bottom panels), and subjected to colony formation assays.
The cells were cultured for 8-10 days to allow colony formation.

[1] = tested on: HCT-116 colon cancer cells; test: Colony formation assay in HCT-116 colon cancer clones (empty vector or Myc-DDK-NNMT); format: cell-based; conditions: HCT-116 Myc-NNMT clones #4, #8, #22 versus empty vector, 8-10 days, n=1 (FIG. 26)
Experimental: Clones of HCT-116 colon cancer cells stably transfected with empty vector (pcDNA3) or the Myc-DDK-NNMT expression plasmid (Myc-NNMT Clone #4, #8, #22) were plated as single cells, allowed to adhere for 12 hours, and then treated with ceritinib. […] Data are means±SEM from triplicate wells, n=1 experiment.
Clonogenic assays were performed as described elsewhere (see, e.g., Wagner et al., Mol. Pharmacol., 76:208-14 (2009)).

SMILES	Sensitivity of BRCA1-depleted cells to the agent versus control luciferase siRNA cells (PEA1 cells)	Sensitivity of BRCA1-depleted cells to the agent versus control luciferase siRNA cells (OVCAR-8 cells)	Sensitization to the agent by depletion of BRCA2 or RAD51 (OVCAR-8 cells; OVCAR-8, BRCA2 or RAD51 siRNAs (FIG. 12B, 12D, 15))	Sensitization to the agent by NNMT overexpression [1]	Sensitization to the agent by NNMT overexpression (OVCAR-8 cells)
O=C(Oc1cccc(F)c1OC(=O)c1cccc(O)c1)c1cccc(O)c1 [WZB117]	sensitized	sensitized			
O=C(c1cc(Cc2n[nH]c(=O)c3ccccc23)ccc1F)N1CCN(C(=O)C2CC2)CC1 [olaparib]			increased sensitivity; also recorded: did sensitize		
Cc1cc(Nc2ncc(Cl)c(Nc3ccccc3S(=O)(=O)C(C)C)n2)c(OC(C)C)cc1C1CCNCC1 [ceritinib]	sensitizes	sensitizes		sensitizes	sensitizes
CN(C)c1cc(NC(=O)CNC(C)(C)C)c(O)c2c1C[C@H]1C[C@H]3[C@H](N(C)C)C(O)=C(C(N)=O)C(=O)[C@@]3(O)C(O)=C1C2=O [tigecycline]	sensitized	sensitized			sensitizes
